Data reported in ChEMBL document CHEMBL4340530, “Peptide-based covalent inhibitors of MALT1 paracaspase” (Bioorg Med Chem Lett, 2019).
The source made the active and inactive calls. The rule behind the calls is not given here.

Tests used:
[1] = target: T1, Mucosa-associated lymphoid tissue lymphoma translocation protein 1 (Homo sapiens) (UniProt Q9UDY8); test: Inhibition of MALT1 (unknown origin) expressed in PMA/IO-stimulated human Raji Glosensor cells by reporter gene assay; type: cell-based
T1 sequence (whole entry): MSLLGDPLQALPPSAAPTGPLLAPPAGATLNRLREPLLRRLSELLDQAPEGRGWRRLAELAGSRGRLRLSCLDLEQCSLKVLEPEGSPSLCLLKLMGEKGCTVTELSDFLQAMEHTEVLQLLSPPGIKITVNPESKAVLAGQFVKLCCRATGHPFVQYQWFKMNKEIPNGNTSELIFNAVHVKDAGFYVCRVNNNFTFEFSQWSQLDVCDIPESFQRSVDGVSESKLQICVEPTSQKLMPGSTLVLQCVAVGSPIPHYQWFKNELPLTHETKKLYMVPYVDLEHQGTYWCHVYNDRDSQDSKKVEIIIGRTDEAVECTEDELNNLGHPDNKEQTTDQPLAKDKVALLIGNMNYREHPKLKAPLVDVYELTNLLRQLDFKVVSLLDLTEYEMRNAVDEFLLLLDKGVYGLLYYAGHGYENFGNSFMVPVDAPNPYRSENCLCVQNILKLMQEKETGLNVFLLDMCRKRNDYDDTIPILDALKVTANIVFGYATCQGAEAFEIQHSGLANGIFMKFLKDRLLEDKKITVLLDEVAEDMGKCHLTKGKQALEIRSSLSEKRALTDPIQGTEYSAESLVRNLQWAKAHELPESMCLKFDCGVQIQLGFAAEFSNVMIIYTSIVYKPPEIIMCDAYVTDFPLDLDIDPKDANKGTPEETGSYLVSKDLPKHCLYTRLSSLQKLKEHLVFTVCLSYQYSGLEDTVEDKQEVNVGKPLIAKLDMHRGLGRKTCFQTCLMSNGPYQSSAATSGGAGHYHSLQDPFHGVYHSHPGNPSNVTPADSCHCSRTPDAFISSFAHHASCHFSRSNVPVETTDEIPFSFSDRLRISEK

[2] = target: Cathepsin B (Homo sapiens) (UniProt P07858); test: Inhibition of cathepsin B (unknown origin) at 10 uM relative to control
[3] = target: T2, Cathepsin L2 (Homo sapiens) (UniProt O60911); test: Inhibition of cathepsin V (unknown origin) at 10 uM relative to control
T2 sequence (whole entry): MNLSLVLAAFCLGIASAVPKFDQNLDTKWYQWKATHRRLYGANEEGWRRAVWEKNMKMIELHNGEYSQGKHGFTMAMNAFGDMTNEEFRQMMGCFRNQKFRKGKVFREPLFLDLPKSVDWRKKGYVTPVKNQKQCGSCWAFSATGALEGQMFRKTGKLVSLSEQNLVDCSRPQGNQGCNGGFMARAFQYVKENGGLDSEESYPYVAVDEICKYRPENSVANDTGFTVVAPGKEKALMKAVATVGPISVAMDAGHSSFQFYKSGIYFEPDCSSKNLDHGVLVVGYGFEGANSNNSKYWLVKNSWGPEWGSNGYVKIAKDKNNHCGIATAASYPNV

[4] = target: Calpain1/2 (Homo sapiens) (UniProt P17655+P07384); test: Inhibition of calpain (unknown origin) at 1 uM relative to control; type: protein assay
[5] = target: Cathepsin B (Homo sapiens) (UniProt P07858); test: Inhibition of cathepsin B (unknown origin) at 1 uM relative to control
[6] = target: T3, Cathepsin K (Homo sapiens) (UniProt P43235); test: Inhibition of cathepsin K (unknown origin) at 1 uM relative to control
T3 sequence (whole entry): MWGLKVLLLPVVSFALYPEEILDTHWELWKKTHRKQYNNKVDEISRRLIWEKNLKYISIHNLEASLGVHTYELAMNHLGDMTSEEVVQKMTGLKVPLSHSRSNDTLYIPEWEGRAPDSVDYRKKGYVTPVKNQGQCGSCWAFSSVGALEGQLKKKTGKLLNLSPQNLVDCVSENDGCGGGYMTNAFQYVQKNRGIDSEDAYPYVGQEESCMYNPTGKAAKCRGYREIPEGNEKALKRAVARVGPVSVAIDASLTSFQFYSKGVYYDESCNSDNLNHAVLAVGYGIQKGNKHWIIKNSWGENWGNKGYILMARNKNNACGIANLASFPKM

[7] = target: Cathepsin S (Homo sapiens) (UniProt P25774); test: Inhibition of cathepsin S (unknown origin) at 1 uM relative to control
[8] = target: T2, Cathepsin L2 (Homo sapiens); test: Inhibition of cathepsin V (unknown origin) at 1 uM relative to control
[9] = target: Prothrombin (Homo sapiens) (UniProt P00734); test: Inhibition of thrombin (unknown origin) at 1 uM relative to control
[10] = target: Cathepsin B (Homo sapiens) (UniProt P07858); test: Inhibition of cathepsin B (unknown origin) at 100 nM relative to control
[11] = target: Cathepsin S (Homo sapiens) (UniProt P25774); test: Inhibition of cathepsin S (unknown origin) at 100 nM relative to control
[12] = target: Prothrombin (Homo sapiens) (UniProt P00734); test: Inhibition of thrombin (unknown origin) at 100 nM relative to control
Trypsin (Homo sapiens) = Trypsin (Homo sapiens) (UniProt P07477+P07478+P35030); test: Inhibition of trypsin (unknown origin) at 100 nM relative to control; type: protein assay
Caspase-1 (Homo sapiens) = Caspase-1 (Homo sapiens) (UniProt P29466); test: Inhibition of caspase-1 (unknown origin) at 10 uM
Caspase-2 (Homo sapiens) = Caspase-2 (Homo sapiens) (UniProt P42575); test: Inhibition of caspase-2 (unknown origin) at 10 uM
Caspase-3 (Homo sapiens) = Caspase-3 (Homo sapiens) (UniProt P42574); test: Inhibition of caspase-3 (unknown origin) at 10 uM
Caspase-5 (Homo sapiens) = Caspase-5 (Homo sapiens) (UniProt P51878); test: Inhibition of caspase-5 (unknown origin) at 10 uM
Caspase-6 (Homo sapiens) = Caspase-6 (Homo sapiens) (UniProt P55212); test: Inhibition of caspase-6 (unknown origin) at 10 uM
Caspase-8 (Homo sapiens) = Caspase-8 (Homo sapiens) (UniProt Q14790); test: Inhibition of caspase-8 (unknown origin) at 10 uM
Caspase-9 (Homo sapiens) = Caspase-9 (Homo sapiens) (UniProt P55211); test: Inhibition of caspase-9 (unknown origin) at 10 uM
[13] = target: Caspase-10 (Homo sapiens) (UniProt Q92851); test: Inhibition of caspase-10 (unknown origin) at 10 uM
[14] = target: Cathepsin G (Homo sapiens) (UniProt P08311); test: Inhibition of cathepsin G (unknown origin) at 10 uM
[15] = target: Coagulation factor X (Homo sapiens) (UniProt P00742); test: Inhibition of factor Xa (unknown origin) at 10 uM
[16] = target: Kallikrein-1 (Homo sapiens) (UniProt P06870); test: Inhibition of KLK1 (unknown origin) at 10 uM
[17] = target: Kallikrein-2 (Homo sapiens) (UniProt P20151); test: Inhibition of KLK2 (unknown origin) at 10 uM
[18] = target: Urokinase-type plasminogen activator (Homo sapiens) (UniProt P00749); test: Inhibition of urokinase (unknown origin) at 10 uM
[19] = Half life in mouse microsomes; type: ADME, Microsome
[20] = Drug uptake in iv dosed mouse plasma by LC-MS/MS analysis; type: ADME, organism-based; details: in vivo

Cathepsin S (Homo sapiens), sequence (P25774 115-331 limits assumed): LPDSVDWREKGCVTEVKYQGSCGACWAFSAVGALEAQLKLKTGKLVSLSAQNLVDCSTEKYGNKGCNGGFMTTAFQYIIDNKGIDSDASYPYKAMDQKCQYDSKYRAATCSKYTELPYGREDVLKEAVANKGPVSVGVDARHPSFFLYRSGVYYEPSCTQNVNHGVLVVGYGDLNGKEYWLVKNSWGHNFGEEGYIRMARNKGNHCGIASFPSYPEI
Calpain1/2 (Homo sapiens), sequence (P07384 whole entry, looked up): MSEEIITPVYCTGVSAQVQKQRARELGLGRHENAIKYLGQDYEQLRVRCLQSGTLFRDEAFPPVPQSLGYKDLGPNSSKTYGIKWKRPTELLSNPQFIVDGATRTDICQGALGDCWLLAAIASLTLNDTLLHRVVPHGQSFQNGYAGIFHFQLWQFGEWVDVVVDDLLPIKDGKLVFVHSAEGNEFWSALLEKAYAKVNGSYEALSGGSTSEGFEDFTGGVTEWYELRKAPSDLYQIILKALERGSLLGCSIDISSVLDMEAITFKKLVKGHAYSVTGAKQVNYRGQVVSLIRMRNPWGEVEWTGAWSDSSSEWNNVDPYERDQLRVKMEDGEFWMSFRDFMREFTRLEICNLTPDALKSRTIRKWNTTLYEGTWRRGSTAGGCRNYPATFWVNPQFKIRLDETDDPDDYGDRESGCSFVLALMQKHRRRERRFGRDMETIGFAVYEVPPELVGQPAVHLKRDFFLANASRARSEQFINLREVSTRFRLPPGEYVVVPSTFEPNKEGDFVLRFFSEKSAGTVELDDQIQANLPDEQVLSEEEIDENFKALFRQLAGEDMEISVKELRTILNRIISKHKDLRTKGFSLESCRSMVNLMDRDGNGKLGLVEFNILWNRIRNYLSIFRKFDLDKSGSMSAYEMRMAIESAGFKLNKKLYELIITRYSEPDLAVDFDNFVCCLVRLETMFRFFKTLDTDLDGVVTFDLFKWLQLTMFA
Calpain1/2 (Homo sapiens), sequence (P17655 whole entry, looked up): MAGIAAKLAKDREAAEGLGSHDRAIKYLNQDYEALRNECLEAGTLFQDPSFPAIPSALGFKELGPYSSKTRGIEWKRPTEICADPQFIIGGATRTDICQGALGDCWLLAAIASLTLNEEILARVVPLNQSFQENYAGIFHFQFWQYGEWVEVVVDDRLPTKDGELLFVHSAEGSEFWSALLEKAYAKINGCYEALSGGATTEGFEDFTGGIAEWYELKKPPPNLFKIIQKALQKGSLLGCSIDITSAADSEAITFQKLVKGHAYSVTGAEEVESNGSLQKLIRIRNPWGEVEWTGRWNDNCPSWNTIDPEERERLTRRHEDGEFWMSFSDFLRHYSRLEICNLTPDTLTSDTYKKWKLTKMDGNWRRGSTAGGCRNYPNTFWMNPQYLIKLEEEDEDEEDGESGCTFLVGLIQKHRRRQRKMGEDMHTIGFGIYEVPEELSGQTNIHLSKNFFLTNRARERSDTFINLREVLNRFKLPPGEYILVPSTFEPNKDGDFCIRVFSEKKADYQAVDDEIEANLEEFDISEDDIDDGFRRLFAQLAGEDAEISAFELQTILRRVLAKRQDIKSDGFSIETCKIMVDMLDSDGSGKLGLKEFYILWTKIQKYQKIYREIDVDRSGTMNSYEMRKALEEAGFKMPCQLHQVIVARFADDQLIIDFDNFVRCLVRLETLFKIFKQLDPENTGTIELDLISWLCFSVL
Kallikrein-2 (Homo sapiens), sequence (P20151 whole entry): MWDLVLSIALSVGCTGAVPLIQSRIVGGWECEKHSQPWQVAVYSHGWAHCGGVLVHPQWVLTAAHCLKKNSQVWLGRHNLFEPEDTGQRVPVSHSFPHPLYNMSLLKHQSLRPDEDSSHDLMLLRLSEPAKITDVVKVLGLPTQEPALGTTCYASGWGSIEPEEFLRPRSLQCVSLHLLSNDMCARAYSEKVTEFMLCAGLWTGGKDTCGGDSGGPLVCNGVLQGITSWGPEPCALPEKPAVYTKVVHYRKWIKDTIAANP
Caspase-10 (Homo sapiens), sequence (Q92851 220-415 limits assumed): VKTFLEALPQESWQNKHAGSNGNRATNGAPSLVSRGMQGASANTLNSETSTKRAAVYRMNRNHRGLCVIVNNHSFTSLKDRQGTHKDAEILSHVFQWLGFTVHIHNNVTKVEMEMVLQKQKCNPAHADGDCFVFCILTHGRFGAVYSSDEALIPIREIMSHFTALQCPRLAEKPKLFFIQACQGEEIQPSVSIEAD
Caspase-10 (Homo sapiens), sequence (Q92851 416-521 limits assumed): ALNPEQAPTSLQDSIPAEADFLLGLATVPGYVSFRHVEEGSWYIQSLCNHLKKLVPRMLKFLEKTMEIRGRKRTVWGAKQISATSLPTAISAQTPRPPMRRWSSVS
Caspase-1 (Homo sapiens), sequence (P29466 120-297 limits assumed): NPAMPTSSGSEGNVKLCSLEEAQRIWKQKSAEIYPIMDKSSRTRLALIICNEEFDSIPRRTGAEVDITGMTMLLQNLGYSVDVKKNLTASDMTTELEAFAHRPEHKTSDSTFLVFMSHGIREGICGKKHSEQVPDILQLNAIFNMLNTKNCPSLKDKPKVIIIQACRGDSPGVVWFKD
Caspase-1 (Homo sapiens), sequence (P29466 317-404 limits assumed): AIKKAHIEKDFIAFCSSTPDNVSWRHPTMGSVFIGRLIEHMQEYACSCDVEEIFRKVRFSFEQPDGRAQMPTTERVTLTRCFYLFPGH
Cathepsin G (Homo sapiens), sequence (P08311 whole entry): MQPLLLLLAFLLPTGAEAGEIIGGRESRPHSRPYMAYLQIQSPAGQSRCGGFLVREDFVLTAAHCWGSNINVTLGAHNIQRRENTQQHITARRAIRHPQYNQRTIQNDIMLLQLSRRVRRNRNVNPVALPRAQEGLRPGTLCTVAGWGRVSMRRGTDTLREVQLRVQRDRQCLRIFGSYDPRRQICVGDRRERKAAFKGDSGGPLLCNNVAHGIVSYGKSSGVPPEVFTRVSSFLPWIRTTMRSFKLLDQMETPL
Caspase-3 (Homo sapiens), sequence (P42574 29-175 limits assumed): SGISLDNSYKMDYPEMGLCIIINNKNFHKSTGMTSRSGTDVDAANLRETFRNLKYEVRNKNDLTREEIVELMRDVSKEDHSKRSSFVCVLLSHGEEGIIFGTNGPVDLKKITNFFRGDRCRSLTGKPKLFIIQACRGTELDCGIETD
Caspase-3 (Homo sapiens), sequence (P42574 176-277 limits assumed): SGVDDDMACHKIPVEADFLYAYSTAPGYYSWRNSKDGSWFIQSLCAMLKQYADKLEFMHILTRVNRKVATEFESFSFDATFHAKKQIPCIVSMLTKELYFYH
Caspase-6 (Homo sapiens), sequence (P55212 24-179 limits assumed): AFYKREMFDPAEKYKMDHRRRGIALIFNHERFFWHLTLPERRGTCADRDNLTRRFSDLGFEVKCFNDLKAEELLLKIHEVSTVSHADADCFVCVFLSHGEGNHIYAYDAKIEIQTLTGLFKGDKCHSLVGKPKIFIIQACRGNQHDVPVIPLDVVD
Caspase-6 (Homo sapiens), sequence (P55212 194-293 limits assumed): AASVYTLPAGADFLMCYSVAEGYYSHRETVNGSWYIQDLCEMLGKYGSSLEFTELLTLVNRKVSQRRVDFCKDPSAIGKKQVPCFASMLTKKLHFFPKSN
Caspase-9 (Homo sapiens), sequence (P55211 1-315 limits assumed): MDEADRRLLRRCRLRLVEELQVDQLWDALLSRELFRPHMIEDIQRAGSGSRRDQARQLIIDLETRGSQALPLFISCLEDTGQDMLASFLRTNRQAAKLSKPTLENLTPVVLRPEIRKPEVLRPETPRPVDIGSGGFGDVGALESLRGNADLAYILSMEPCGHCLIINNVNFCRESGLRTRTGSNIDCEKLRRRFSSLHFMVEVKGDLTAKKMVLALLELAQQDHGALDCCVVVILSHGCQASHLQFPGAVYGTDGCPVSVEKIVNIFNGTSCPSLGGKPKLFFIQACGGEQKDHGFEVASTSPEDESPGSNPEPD
Caspase-9 (Homo sapiens), sequence (P55211 331-416 limits assumed): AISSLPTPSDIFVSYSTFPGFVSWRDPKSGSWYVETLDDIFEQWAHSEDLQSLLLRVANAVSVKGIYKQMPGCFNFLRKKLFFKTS
Kallikrein-1 (Homo sapiens), sequence (P06870 25-262 limits assumed): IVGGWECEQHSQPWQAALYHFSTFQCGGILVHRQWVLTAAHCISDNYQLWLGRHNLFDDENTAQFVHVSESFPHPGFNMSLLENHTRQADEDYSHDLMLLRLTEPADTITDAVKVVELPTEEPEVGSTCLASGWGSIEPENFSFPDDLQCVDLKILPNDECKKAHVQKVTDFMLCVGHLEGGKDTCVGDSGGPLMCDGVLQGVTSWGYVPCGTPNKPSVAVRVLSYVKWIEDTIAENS
Caspase-2 (Homo sapiens), sequence (P42575 170-325 limits assumed): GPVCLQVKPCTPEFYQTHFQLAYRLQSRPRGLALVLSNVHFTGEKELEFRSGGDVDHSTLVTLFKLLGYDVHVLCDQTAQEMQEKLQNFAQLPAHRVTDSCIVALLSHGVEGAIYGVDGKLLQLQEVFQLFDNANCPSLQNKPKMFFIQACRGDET
Caspase-2 (Homo sapiens), sequence (P42575 334-452 limits assumed): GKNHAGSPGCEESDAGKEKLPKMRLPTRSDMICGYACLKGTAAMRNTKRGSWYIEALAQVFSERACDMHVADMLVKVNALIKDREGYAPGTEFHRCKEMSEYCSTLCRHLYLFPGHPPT
Caspase-8 (Homo sapiens), sequence (Q14790 217-374 limits assumed): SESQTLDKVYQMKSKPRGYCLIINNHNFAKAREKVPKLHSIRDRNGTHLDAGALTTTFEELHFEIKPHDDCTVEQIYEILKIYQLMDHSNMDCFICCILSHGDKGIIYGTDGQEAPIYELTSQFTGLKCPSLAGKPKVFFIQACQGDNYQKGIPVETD
Caspase-8 (Homo sapiens), sequence (Q14790 385-479 limits assumed): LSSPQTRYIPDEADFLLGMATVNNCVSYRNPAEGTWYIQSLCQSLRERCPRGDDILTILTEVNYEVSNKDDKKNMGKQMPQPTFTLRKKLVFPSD
Caspase-5 (Homo sapiens), sequence (P51878 137-327 limits assumed): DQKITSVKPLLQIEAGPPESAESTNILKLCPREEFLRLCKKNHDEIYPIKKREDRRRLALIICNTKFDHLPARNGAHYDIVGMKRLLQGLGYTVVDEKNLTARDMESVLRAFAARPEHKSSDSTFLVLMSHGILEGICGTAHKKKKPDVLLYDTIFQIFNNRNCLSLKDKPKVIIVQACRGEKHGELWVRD
Caspase-5 (Homo sapiens), sequence (P51878 347-434 limits assumed): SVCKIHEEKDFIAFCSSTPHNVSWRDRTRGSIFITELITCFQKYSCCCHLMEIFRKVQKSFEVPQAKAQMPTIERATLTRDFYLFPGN

- IC50 [1]: 70 to 71 nM
- inhibition [2]: 99.6%
- inhibition [3]: 89.4%
- inhibition [4]: 25.6%
- inhibition [5]: 92.5%
- inhibition [6]: 97.1%
- inhibition [7]: 83.9%
- inhibition [8]: 56.9%
- inhibition [9]: 25.2%
- inhibition [10]: 34.2%
- inhibition [11]: 78.2%
- inhibition [12]: 14.8%
- inhibition (Trypsin (Homo sapiens)): 92.9%
- inhibition (Caspase-1 (Homo sapiens)): Active
- inhibition (Caspase-2 (Homo sapiens)): Active
- inhibition (Caspase-3 (Homo sapiens)): Active
- inhibition (Caspase-5 (Homo sapiens)): Active
- inhibition (Caspase-6 (Homo sapiens)): Active
- inhibition (Caspase-8 (Homo sapiens)): Active
- inhibition (Caspase-9 (Homo sapiens)): Active
- inhibition [13]: Active
- inhibition [14]: Active
- inhibition [15]: Active
- inhibition [16]: Active
- inhibition [17]: Active
- inhibition [18]: Active
- t1/2 [19]: > 2 h
- Drug uptake [20]: Active
SMILES: CC(C)[C@H](NC(=O)c1ccc(Br)cc1)C(=O)N1CCC[C@H]1C(=O)N[C@@H](CCCNC(=N)N)C(=O)CF
